Measurements as given in article PMC11039317, “Acidity of persulfides and its modulation by the protein environments in sulfide quinone oxidoreductase and thiosulfate sulfurtransferase” (The Journal of Biological Chemistry, 2024).
Several values for one entry are separate records, joined by “and”; a condition that tells them apart may be missing. Identical values can stand only once. Like-named read-outs stand apart in the source and are kept apart here. Marks after values point to notes of the source that are not given here.

Experiments:
Cys = settings: cited from earlier work
Human SQOR [1] = molecular target: T1, Human SQOR (Homo sapiens, UniProt Q9Y6N5); settings: cited from earlier work
T1 construct: made in house

[2] = pKa and nucleophilicity of LMW persulfides by pH-dependence of reaction rates with mBrB (stopped-flow fluorescence); settings: for ΔpKa: analog thiol pKa minus persulfide pKa; for pKa, Persulfide / kind with mBrB, Persulfide: I = 0.15, 25 °C, this work; for kind with mBrB, Persulfide: pH-independent rate constant
[3] = cited from earlier work
[4] = cited from earlier work; for kind with mBrB, Analog thiol: pH-independent rate constant of analog thiol
Human SQOR [5] = molecular target: T1, Human SQOR; assay type: biochemical; settings: neutral pH
Protocol: The acidity of the persulfidated SQOR was evaluated by the pH-dependence of the steady-state rates. For enzymes that catalyze reactions with one substrate, the kinetic parameter kcat/Km (specificity constant) is an apparent second-order rate constant that reports on the properties of the free enzyme and the free substrate ([32]). kcat/Km can be calculated from the kinetic parameters kcat and Km obtained from typical Michaelis–Menten analysis (Equation 1). […]
SQOR uses three substrates: H2S, a sulfur acceptor (Acc^−), and CoQ (Fig. 1A). At saturating concentrations of H2S and CoQ, the kcat/Km^Acc- represents the apparent rate constant for the reaction between the sulfur acceptor and the Cys379SSH of the bis-persulfidated SQOR, and its pH-dependency reports on the pKa of both free species. Although the pH dependence of human SQOR activity has been reported ([25]), the pH dependence of kcat/Km is unavailable. The steady-state rate of SQOR was determined by monitoring the reduction of coenzyme Q1 (CoQ1) at 278 nm at varying pH at 25 °C. […]. Therefore, in the experiments with cyanide, the reactions were started with cyanide instead of SQOR so that the contribution of SQOR with H2S alone could be subtracted.
In experiments with sulfite, steady-state time courses with varying concentrations of sulfite (0.01–8 mM) were recorded, and linear functions were fitted to the first 15 to 40 s following SQOR addition (Fig. 3A). The slope before SQOR addition was subtracted to correct for the background nonenzymatic reduction of CoQ1, which was minimal. From the hyperbolic fit of the activity versus sulfite concentration plot (Fig. 3B), the kinetic parameters kcat^sulfite and Km^sulfite were obtained, and the kcat/Km^sulfite for each pH were calculated. As expected, when the kcat/Km^sulfite were plotted against pH, a bell-shaped profile was obtained (Fig. 3C), consistent with a reaction between a deprotonated species and a protonated one. An equation with two pKa was fitted to the data (Equation 3), assuming that deprotonated sulfite and protonated SQOR persulfide were the reacting species. […]. […]
The steady-state rates were obtained from linear fits to the data during the first 4 to 20 s following cyanide addition, and the slopes before cyanide addition were subtracted. The kcat/Km^cyanide at each pH was calculated according to Equation 2 using the enzyme (50 nM) and cyanide (90 μM) initial concentrations. […]
Human SQOR was expressed and purified as reported previously ([24], [25]). SQOR concentration was determined from the FAD absorbance at 450 nm, using ε = 11,500 M^−1 cm^−1 ([25]). […]
The activity of SQOR was measured at different pHs in a temperature-controlled spectrophotometer (Shimadzu UV-2600 or UV-1900i). […]

Human TST = Human TST (Homo sapiens, UniProt Q16762); settings: cited from earlier work
Cys248 [6] = molecular target: T2, Cys248 (UniProt position 248, PLIATCRKGVT); assay: kinetics; settings: 25 °C; I = 0.15 M (120 mM NaCl); acetic/MES/Tris (15 mM acetic acid, 15 mM MES, 30 mM Tris, 120 mM NaCl, 0.1 mM DTPA); TST thiol (sulfur-free) form reacting with thiosulfate, pseudo-first order
Cys248 [7] = molecular target: T2, Cys248; settings: cited from earlier work
TST thiol = TST thiol (Homo sapiens, UniProt Q16762)
Protocol: The pH-dependency of the reaction rates of TST persulfide with sulfur acceptors and of TST thiol with thiosulfate were studied by following changes in the intrinsic fluorescence (λex = 295 nm, US 360 nm bandpass filter) in the stopped-flow spectrofluorimeter.
To prepare TST thiol, ∼ 100 μM thiosulfate was added to TST stocks ( ∼ 20 μM) at room temperature. After 15 min, ∼ 200 μM cyanide was added and left to react for 10 min. The remaining LMW compounds were removed with a PD MidiTrap G-25 column equilibrated with 10 mM Tris buffer, pH 8.5. The TST thiol was diluted in ultrapure water (1.8–2.0 μM) in one of the stopped-flow syringes and reacted with thiosulfate (400 μM) prepared in the other syringe in either acetic/MES/Tris buffer 2× (pH 3.68–8.75) or in ACES/Tris/ethanolamine buffer 2× (pH 6.68–10.34), at 25 °C. The final concentrations were halved as a result of the symmetrical stopped-flow mixing. The decrease in the intrinsic fluorescence caused by persulfide formation was recorded during 0.8 to 200 s depending on the time course, and the final pH was measured.

bovine TST = settings: cited from earlier work
[8] = forms as drawn in Table 1 (ammonium form for CysOMeSSH)

Sequence of TST thiol (Q16762 whole entry): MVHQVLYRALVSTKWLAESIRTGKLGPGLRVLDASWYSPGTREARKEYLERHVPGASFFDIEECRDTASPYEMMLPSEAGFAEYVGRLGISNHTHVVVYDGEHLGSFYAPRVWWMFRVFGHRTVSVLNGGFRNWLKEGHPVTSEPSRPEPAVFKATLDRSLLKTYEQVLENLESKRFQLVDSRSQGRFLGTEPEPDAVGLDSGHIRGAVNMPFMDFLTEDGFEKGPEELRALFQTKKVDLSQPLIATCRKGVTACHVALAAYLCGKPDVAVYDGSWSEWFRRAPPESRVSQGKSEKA
Sequence of Human TST (Q16762 whole entry): as above
T1 sequence (Q9Y6N5 whole entry): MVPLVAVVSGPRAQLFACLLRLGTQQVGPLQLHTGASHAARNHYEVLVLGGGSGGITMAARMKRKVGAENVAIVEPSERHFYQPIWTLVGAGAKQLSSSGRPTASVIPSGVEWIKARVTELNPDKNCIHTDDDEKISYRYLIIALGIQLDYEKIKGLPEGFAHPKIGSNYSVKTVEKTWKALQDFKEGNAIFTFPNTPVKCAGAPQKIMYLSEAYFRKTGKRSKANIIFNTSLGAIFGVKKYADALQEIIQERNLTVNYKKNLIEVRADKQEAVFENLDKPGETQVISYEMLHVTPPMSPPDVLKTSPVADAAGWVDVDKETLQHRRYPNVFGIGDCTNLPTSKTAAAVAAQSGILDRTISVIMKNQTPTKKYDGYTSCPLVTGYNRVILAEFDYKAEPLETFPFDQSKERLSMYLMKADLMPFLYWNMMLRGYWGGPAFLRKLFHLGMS

3-Mercaptopyruvate sulfurtransferase (MPST) (Homo sapiens)
pKa (Cys): 5.2

COC1=C(OC)C(=O)C(CC=C(C)C)=C(C)C1=O [CoQ1, coenzyme Q1]
Km (Human SQOR [1]; pH 7.5, read-out: Km^CoQ1): 19 µM

CC(C)c1ccccc1 [Cumene]
ΔpKa [2]: >3
pKa, Analog thiol ([3]; analog thiol of the persulfide, predicted value based on similar thiols): >10 ^h
pKa, Persulfide [3]: 7.0 ^g

COC(=O)[C@@H](N)CSS [CysOMeSS^−, cysteine methyl ester persulfide]
pKa, Persulfide [2, 8]: 4.6 ± 0.1 ^a
pKa, Persulfide ([2]; second pKa of two-pKa fit, amino (NH2) form of CysOMeSSH): 6.3 ± 0.6 ^a
ΔpKa [2]: 2.8
ΔpKa ([2]; amino (NH2) form of CysOMeSSH): 2.6
kind with mBrB, Persulfide [2]: 3.8 ± 0.4 ^a × 10^3 M^−1 s^−1
kind with mBrB, Persulfide ([2]; amino (NH2) form of CysOMeSSH): 5.4 ± 0.8 ^a × 10^3 M^−1 s^−1

N[C@@H](CSS)C(=O)O [CysSS^−, cysteine persulfide]
pKa, Persulfide [2, 8]: 5.2 ± 0.1 ^a
ΔpKa [2]: 3.1
kind with mBrB, Persulfide [2]: 3.2 ± 0.1 ^a × 10^3 M^−1 s^−1
pH-independent second-order rate constant, kind, with mBrB ([2]; persulfide, 25 °C): (3.2 ± 0.1) × 10^3 M^−1 s^−1

NCCSS [CystSS^−, cysteamine persulfide]
pKa, Persulfide [2, 8]: 4.87 ± 0.09 ^a
kind with mBrB, Persulfide [2]: 3.9 ± 0.2 ^a × 10^3 M^−1 s^−1

COC(=O)[C@@H](N)CS [Cysteine methyl ester]
pKa, Analog thiol ([3]; analog thiol, amino (NH2) form): 8.88 ^b
pKa, Analog thiol ([3]; analog thiol, ammonium form): 7.44 ^b
pKa of the ammonium group ([3]; listed as CysOMeSH): 6.88
pKa of the ammonium group ([3]; listed as CysOMeS^−): 8.32

N[C@@H](CS)C(=O)O [Cysteine]
kind with mBrB, Analog thiol [4]: 105 ^d M^−1 s^−1
pKa, Analog thiol ([3]; analog thiol): 8.29 ^d

N[C@@H](CCC(=O)N[C@@H](CSS)C(=O)NCC(=O)O)C(=O)O [GSS^−, glutathione persulfide]
ΔpKa [2]: 3.49
pKa, Persulfide ([4]; I = 0.15, 25 °C): 5.45 ± 0.03 ^e
kind with mBrB, Persulfide ([4]; pH-independent rate constant, I = 0.15, 25 °C): 9.0 ± 0.2 ^e × 10^3 M^−1 s^−1

N[C@@H](CCC(=O)N[C@@H](CS)C(=O)NCC(=O)O)C(=O)O [Glutathione, glutathione]
Km (Human SQOR [1]; pH 7.4, read-out: Km^GSH): 8000 µM
kind with mBrB, Analog thiol [4]: 208 ^d M^−1 s^−1
pKa, Analog thiol ([3]; analog thiol): 8.94 ^d
pKa of the glycyl carboxylic acid ([3]; neutral variant of GSH): 3.36
pKa of the glycyl carboxylic acid ([3]; positive variant of GSH): 3.12

NC(CCSS)C(=O)O (stereo not shown) [HcySS^−, homocysteine persulfide]
kind with mBrB, Persulfide [2]: 5.4 ± 0.1 ^a × 10^3 M^−1 s^−1

NC(CCS)C(=O)O (stereo not shown) [Homocysteine]
pKa, Analog thiol ([3]; analog thiol): 9.1 ^d

S [Persulfide H2S, hydrogen sulfide]
Km (Human SQOR [1]; pH 7.4, H2S as sulfur acceptor, read-out: Km^H2S (Acceptor)): 350 µM
Km (Human SQOR [1]; pH 7.5, first step of catalysis, read-out: Km^H2S (Donor)): 13 µM

Cl [chloride]
increase of apparent Km^sulfite (Human SQOR [5]; in the presence of 120 mM chloride versus absence): ~20 fold
Ki (Human SQOR [5]; sulfite as sulfur acceptor, read-out: Ki (estimated), reversible competitive inhibition versus sulfite): ~7.4 mM

O=S(O)(O)=S [thiosulfate]
thiosulfate concentration causing inhibition of TST (Human TST; b33: with 312 μM cyanide): 30 mM and > 30 mM
Km (Human TST; read-out: Km^thiosulfate): 18000 to 45000 µM

OCCSS [β-MESS^−, β-mercaptoethanol persulfide]
pKa, Persulfide [2, 8]: 5.8 ± 0.1 ^a
ΔpKa [2]: 3.8
kind with mBrB, Persulfide [2]: 7.5 ± 0.4 ^a × 10^3 M^−1 s^−1

OCCS [β-Mercaptoethanol]
kind with mBrB, Analog thiol [4]: 519 ^d M^−1 s^−1
pKa, Analog thiol ([3]; analog thiol): 9.6 ^d

Thiosulfate sulfurtransferase (TST, rhodanese), thiol form (Homo sapiens)
pKa (Cys248 [6]): 6.5 ± 0.1

Thiosulfate sulfurtransferase (rhodanese), bovine liver (Bos taurus)
pKa (Cys248 [7]; free enzyme thiol ('the thiol alone')): 7.8
pKa (Cys248 [7]; thiol in complex with substrate analogs): 6.75 to 7.05
pKa (Cys248 [7]; thiol in complex with thiosulfate): 6.5

B1: TST thiol (protein, UniProt Q16762 2-297, looked up)
Thiosulfate sulfurtransferase: VHQVLYRALVSTKWLAESIRTGKLGPGLRVLDASWYSPGTREARKEYLERHVPGASFFDIEECRDTASPYEMMLPSEAGFAEYVGRLGISNHTHVVVYDGEHLGSFYAPRVWWMFRVFGHRTVSVLNGGFRNWLKEGHPVTSEPSRPEPAVFKATLDRSLLKTYEQVLENLESKRFQLVDSRSQGRFLGTEPEPDAVGLDSGHIRGAVNMPFMDFLTEDGFEKGPEELRALFQTKKVDLSQPLIATCRKGVTACHVALAAYLCGKPDVAVYDGSWSEWFRRAPPESRVSQGKSEKA
modifications: active-site cysteine thiol
pH-independent rate constant, Cyanide (TST thiol): No reaction
pH-independent rate constant, Sulfite (TST thiol): No reaction
second-order rate constant with thiosulfate (TST thiol): ~30000 M⁻¹ s⁻¹
pKa of the decrease in kobs at alkaline pH (TST thiol; pH 6.68): ~10

B2: bovine TST: bovine thiosulfate sulfurtransferase (rhodanese), literature values (protein, UniProt P00586 2-297, looked up)
Thiosulfate sulfurtransferase: VHQVLYRALVSTKWLAESVRAGKVGPGLRVLDASWYSPGTREARKEYLERHVPGASFFDIEECRDKASPYEVMLPSEAGFADYVGSLGISNDTHVVVYDGDDLGSFYAPRVWWMFRVFGHRTVSVLNGGFRNWLKEGHPVTSEPSRPEPAIFKATLNRSLLKTYEQVLENLESKRFQLVDSRAQGRYLGTQPEPDAVGLDSGHIRGSVNMPFMNFLTEDGFEKSPEELRAMFEAKKVDLTKPLIATCRKGVTACHIALAAYLCGKPDVAIYDGSWFEWFHRAPPETWVSQGKGGKA
pKa of the thiol alone (bovine TST; bovine TST): 7.8
pKa of the thiol in complex with substrate analogs (bovine TST): 6.75 to 7.05
pKa of the thiol in complex with thiosulfate (bovine TST): 6.5
